From PubChem BioAssay (NCI)
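Growth conditions: 96-well plates. Treatment: test compound, 48 hours, 5 concentrations. Analysis: linear interpolation between bracketing concentrations; unreached endpoints set to highest concentration. GI50: concentration for 50% inhibition of growth. At the TGI there is no net growth.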

Legend:
Assay in all cases: NCI anticancer screen, dose series, 48 h
SN12C renal = tested on: SN12C renal
MCF7 breast = tested on: MCF7 breast
LOX IMVI melanoma = tested on: LOX IMVI melanoma
SK-MEL-2 melanoma = tested on: SK-MEL-2 melanoma
K-562 leukemia = tested on: K-562 leukemia
HOP-92 NSCLC = tested on: HOP-92 NSCLC
OVCAR-3 ovarian = tested on: OVCAR-3 ovarian
NCI-H23 lung = tested on: NCI-H23 lung
U251 CNS = tested on: U251 CNS
NCI/ADR-RES ovarian = tested on: NCI/ADR-RES ovarian
DU-145 prostate = tested on: DU-145 prostate
UACC-62 melanoma = tested on: UACC-62 melanoma
CAKI-1 renal = tested on: CAKI-1 renal
NCI-H522 lung = tested on: NCI-H522 lung
SF-268 CNS = tested on: SF-268 CNS
OVCAR-4 ovarian = tested on: OVCAR-4 ovarian
SK-OV-3 ovarian = tested on: SK-OV-3 ovarian
SF-295 CNS = tested on: SF-295 CNS
RPMI-8226 leukemia = tested on: RPMI-8226 leukemia
ACHN renal = tested on: ACHN renal
MOLT-4 leukemia = tested on: MOLT-4 leukemia
MDA-MB-435 = tested on: MDA-MB-435
IGROV1 ovarian = tested on: IGROV1 ovarian
A498 renal = tested on: A498 renal
SK-MEL-28 melanoma = tested on: SK-MEL-28 melanoma
HCT-116 colon = tested on: HCT-116 colon
MALME-3M melanoma = tested on: MALME-3M melanoma
T-47D breast = tested on: T-47D breast
HCC-2998 colon = tested on: HCC-2998 colon
786-0 renal = tested on: 786-0 renal
NCI-H460 lung = tested on: NCI-H460 lung
A549 NSCLC = tested on: A549 NSCLC
HS 578T breast = tested on: HS 578T breast
COLO 205 colon = tested on: COLO 205 colon
RXF 393 renal = tested on: RXF 393 renal
TK-10 renal = tested on: TK-10 renal
OVCAR-5 ovarian = tested on: OVCAR-5 ovarian
KM12 colon = tested on: KM12 colon
CCRF-CEM leukemia = tested on: CCRF-CEM leukemia
SR leukemia = tested on: SR leukemia
UO-31 renal = tested on: UO-31 renal
SK-MEL-5 melanoma = tested on: SK-MEL-5 melanoma
PC-3 prostate = tested on: PC-3 prostate
HCT-15 colon = tested on: HCT-15 colon
SNB-19 CNS = tested on: SNB-19 CNS
OVCAR-8 ovarian = tested on: OVCAR-8 ovarian
M14 melanoma = tested on: M14 melanoma
NCI-H226 lung = tested on: NCI-H226 lung
HOP-62 NSCLC = tested on: HOP-62 NSCLC

`CN(Cc1ccccc1)c1ncnc2ccc(Br)cc12` showed a GI50 (SN12C renal) of 15.1 µM, a TGI (SN12C renal) of 29.6 µM and a GI50 (MCF7 breast) of 26.4 µM. The TGI (MCF7 breast) was > 100 µM, the GI50 (LOX IMVI melanoma) was 14.7 µM and the TGI (LOX IMVI melanoma) was 29.2 µM. For the same molecule, the GI50 (SK-MEL-2 melanoma) was 35.7 µM, the TGI (SK-MEL-2 melanoma) was > 100 µM and the GI50 (K-562 leukemia) was 4.4 µM. It also gave a TGI (K-562 leukemia) of 18.6 µM, a GI50 (HOP-92 NSCLC) of 7.16 µM and a TGI (HOP-92 NSCLC) of 25.8 µM. It also gave a GI50 (OVCAR-3 ovarian) of 7.45 µM, a TGI (OVCAR-3 ovarian) of 20.8 µM and a GI50 (NCI-H23 lung) of 11.3 µM. For the same molecule, the TGI (NCI-H23 lung) was 28.9 µM, the GI50 (U251 CNS) was 11.9 µM and the TGI (U251 CNS) was 24.6 µM. The GI50 (NCI/ADR-RES ovarian) was 8.94 µM, the TGI (NCI/ADR-RES ovarian) was 33.3 µM and the GI50 (DU-145 prostate) was 14.6 µM. For the same molecule, the TGI (DU-145 prostate) was 28.7 µM, the GI50 (UACC-62 melanoma) was 13.1 µM and the TGI (UACC-62 melanoma) was 27.1 µM. It also gave a GI50 (CAKI-1 renal) of 4.37 µM, a TGI (CAKI-1 renal) of 17.6 µM and a GI50 (NCI-H522 lung) of 23.1 µM. For the same molecule, the TGI (NCI-H522 lung) was > 100 µM, the GI50 (SF-268 CNS) was 10.2 µM and the TGI (SF-268 CNS) was 27.5 µM. It also gave a GI50 (OVCAR-4 ovarian) of 12.8 µM, a TGI (OVCAR-4 ovarian) of 36.8 µM and a GI50 (SK-OV-3 ovarian) of 14.2 µM. For the same molecule, the TGI (SK-OV-3 ovarian) was 30.3 µM, the GI50 (SF-295 CNS) was 13.5 µM and the TGI (SF-295 CNS) was 28.1 µM. The GI50 (RPMI-8226 leukemia) was 3.26 µM, the TGI (RPMI-8226 leukemia) was 13.1 µM and the GI50 (ACHN renal) was 12.6 µM. For the same molecule, the TGI (ACHN renal) was 28.1 µM, the GI50 (MOLT-4 leukemia) was 5.77 µM and the TGI (MOLT-4 leukemia) was 28.8 µM. For the same molecule, the GI50 (MDA-MB-435) was 4.67 µM, the TGI (MDA-MB-435) was 16.6 µM and the GI50 (IGROV1 ovarian) was 8.17 µM. The TGI (IGROV1 ovarian) was > 100 µM, the GI50 (A498 renal) was 4.8 µM and the TGI (A498 renal) was 17.1 µM. It also gave a GI50 (SK-MEL-28 melanoma) of 15.6 µM, a TGI (SK-MEL-28 melanoma) of 36.1 µM and a GI50 (HCT-116 colon) of 11.1 µM. For the same molecule, the TGI (HCT-116 colon) was 23.5 µM, the GI50 (MALME-3M melanoma) was 10.9 µM and the TGI (MALME-3M melanoma) was 23.2 µM. For the same molecule, the GI50 (T-47D breast) was 22 µM, the TGI (T-47D breast) was > 100 µM and the GI50 (HCC-2998 colon) was 11.9 µM. For the same molecule, the TGI (HCC-2998 colon) was 26.3 µM, the GI50 (786-0 renal) was 13.5 µM and the TGI (786-0 renal) was 26.3 µM. It also gave a GI50 (NCI-H460 lung) of 10.3 µM, a TGI (NCI-H460 lung) of 26 µM and a GI50 (A549 NSCLC) of 17.5 µM. It also gave a TGI (A549 NSCLC) of 45.8 µM, a GI50 (HS 578T breast) of 11.5 µM and a TGI (HS 578T breast) of 27.8 µM. The GI50 (COLO 205 colon) was 16.2 µM, the TGI (COLO 205 colon) was 38.2 µM and the GI50 (RXF 393 renal) was 13.7 µM. The TGI (RXF 393 renal) was 31 µM, the GI50 (TK-10 renal) was 5.68 µM and the TGI (TK-10 renal) was 19.8 µM. The GI50 (OVCAR-5 ovarian) was 15.3 µM, the TGI (OVCAR-5 ovarian) was 31.3 µM and the GI50 (KM12 colon) was 11.9 µM. For the same molecule, the TGI (KM12 colon) was 25.5 µM, the GI50 (CCRF-CEM leukemia) was 13.6 µM and the TGI (CCRF-CEM leukemia) was 38.7 µM. It also gave a GI50 (SR leukemia) of 16.5 µM, a TGI (SR leukemia) of 38 µM and a GI50 (UO-31 renal) of 13.3 µM. It also gave a TGI (UO-31 renal) of 49.5 µM, a GI50 (SK-MEL-5 melanoma) of 11.8 µM and a TGI (SK-MEL-5 melanoma) of 24.1 µM. For the same molecule, the GI50 (PC-3 prostate) was 11.7 µM, the TGI (PC-3 prostate) was 33.4 µM and the GI50 (HCT-15 colon) was 14.1 µM. The TGI (HCT-15 colon) was 32 µM, the GI50 (SNB-19 CNS) was 16.8 µM and the TGI (SNB-19 CNS) was 41.9 µM. For the same molecule, the GI50 (OVCAR-8 ovarian) was 26.1 µM, the TGI (OVCAR-8 ovarian) was 95.5 µM and the GI50 (M14 melanoma) was 12.9 µM. The TGI (M14 melanoma) was 25.7 µM, the GI50 (NCI-H226 lung) was 13.8 µM and the TGI (NCI-H226 lung) was 39.1 µM. It also gave a GI50 (HOP-62 NSCLC) of 12.6 µM and a TGI (HOP-62 NSCLC) of 25.9 µM.
